Results as given in US9446081B2, “Pharmaceutical composition for preventing and treating complications of diabetes containing a traditional oriental medicine extract or a fraction thereof as an active ingredient” (KOREA INSTITUTE OF ORIENTAL MEDICINE, priority 2011, dated 2016).
Converted amounts (≈) assume the structure as drawn.

Tests used:
[1] = target: AGE-BSA cross-linked to collagen (Bos taurus, UniProt P02769); experiment: In vitro AGE cross-linking breaking effect (AGE-BSA on collagen-coated plate, ELISA); format: biochemical; conditions: 4 hours at 37° C.; for AGE-BSA (%) remaining cross-linked: OD of treated well/untreated well x100
Method: 1.0 μg of AGE-BSA was distributed in a collagen-coated 96-well microtitre plate, followed by culture for 4 hours at 37° C. The plate was then washed with PBS containing 0.05% tween three times to eliminate non-conjugated AGE-BSA. Homonoia riparia Lour. The extract of Homonoia riparia Lour. or ALT-711 (4,5-dimethyl-3-(2-oxo-2-phenylethyl)-thiazolium chloride; Alteon Inc., Ramsey, N.J.) known as the AGEs cross-linking breaker was 2-fold diluted serially from the concentration of 1000 μg/ml to 1 μg/ml, which was added to each well (triplicate), followed by culture for 4 hours at 37° C. Upon completion of the culture, each well was washed with PBS containing 0.05% tween three times. To detect the AGE-BSA remaining as cross-linked to collagen, rabbit polyclonal anti-AGE-BSA antibody (MBL international, Woburn, Mass.) diluted at the ratio of 1:250 was distributed in each well, followed by culture for 1 hour at 37° C. One hour later, the plate was washed with PBS containing 0.05% tween three times, to which horseradish peroxidase-linked goat anti-rabbit antibody (Sigma, USA) was applied. Color development was induced by using 3,3′,5,5′-tetramethylbenzidine (TMB) as a substrate and OD450 was measured. Breaking % of AGE-BSA cross-linking was calculated by the following mathematical formula 2. AGE-BSA (%)=OD of sample treated well/OD of sample untreated well×100 [Mathematical Formula 2]

[2] = test system: advanced glycation endproducts production (bovine serum albumin + fructose/glucose); experiment: Inhibiting effect on advanced glycation endproducts production (BSA with fructose/glucose, fluorescence); format: biochemical; conditions: 14 days at 37° C.
Method: Inhibiting effect of the extract of Homonoia riparia Lour. obtained in <Example 1> and each fraction thereof (normal-hexane, ethyl acetate, normal-butanol, or water fraction) obtained in <Example 2> on the advanced glycation endproducts production was investigated in vitro. Bovine serum albumin (BSA, Sigma, USA) was used as a protein source. BSA was added to 50 mM phosphate buffer (pH 7.4) to make the concentration 10 mg/ml. 0.2 M fructose/0.2 M glucose mixed solution was used as a sugar source. The fructose/glucose mixed solution was added to the BSA solution prepared above. The ethanol extract of Homonoia riparia Lour. was prepared at the concentration of 2.5 μg/ml, 5 μg/ml, or 10 μg/ml. The normal-hexane fraction was prepared at the concentration of 10 μg/ml, 25 μg/ml, or 50 μg/ml. The ethyl acetate fraction was prepared at the concentration of 1.25 μg/ml, 2.5 μg/ml, or 5 μg/ml. The normal-butanol fraction was prepared at the concentration of 1.25 μg/ml, 2.5 μg/ml, or 5 μg/ml. The water fraction was prepared at the concentration of 2.5 μg/ml, 5 μg/ml, or 10 μg/ml. All the compounds were dissolved in dimethylsulfoxide (DMSO), to which 15% tween 80 was added. At that time, the final DMSO content was 0.2%. The prepared extract or the fractions thereof were added to the BSA/sugar mixed solution, followed by culture for 14 days at 37° C. At that time, 0.02% sodium azide and antimycotics were added as an anti-bacterial agent and an anti-fungal agent. The BSA/sugar mixed solution was cultured, which was used as the control. The extract or the fractions thereof were used as the blank. In the meantime, aminoguanidine was used as the positive control, which was the index for the effect comparison. Particularly, aminoguanidine was dissolved in distilled water, followed by culture by the same manner as described above at the concentration of 18.5 μg/ml, 37 μg/ml, or 55.5 μg/ml for 14 days. All the culture solutions were prepared 4 of each to minimize error. After 14 days of culture, the amount of the advanced glycation endproducts was measured. The advanced glycation endproducts were fluorescent brown and had physiochemical property suitable for cross-linking, and also had ligands which could be recognized by cell membrane receptors. The amount of the advanced glycation endproducts having the said properties was measured by a microplate reader (Excitation: 350 nm, Emission: 450 nm) to evaluate the inhibiting effect on the advanced glycation endproducts production (Vinson, J. A. et al., J. Nutr. Biochem., 7: 659-663, 1996). Inhibition rate of the advanced glycation endproducts production was calculated by the following mathematical formula 1. […]

[3] = target: T1, aldose reductase from lens of SD rat (Rattus norvegicus, UniProt P07943); experiment: Inhibiting effect on aldose reductase (AR) activity; format: biochemical, Sprague-Dawley rat
T1 construct: natural aldose reductase from the eyeball of SD rat; from tissue; host or cells: Sprague-Dawley rat lens, homogenised; centrifuged and filtered supernatant
Method: Inhibiting effect of the extract of Homonoia riparia Lour. or the fractions (normal-hexane fraction, ethyl acetate fraction, normal-butanol fraction, and water fraction) thereof on aldose reductase activity was investigated in vitro. To obtain natural aldose reductase from the eyeball of SD rat (Sprague-Dawley rat, 250˜280 g) according to the method of Dufrane (1984), 135 mM Na, K-phosphate buffer (pH 7.0), and 10 mM 2-mercaptoethanol were mixed with the extracted lens, which was ground by using a homogenizer and a sonicater. After performing centrifugation at 14,000 rpm for 30 minutes, the supernatant was filtered by using 0.2 μm filter. All the procedures were performed at 4° C. Quantification was performed by Lowry method using BSA as a protein source of the enzyme. The mixture comprising 135 mM Na, K-phosphate buffer (pH 7.0), 100 mM lithium sulfate, 0.03 mM NADPH, 0.04 mM DL-glycealdehyde and 100 μg/ml enzyme mixture was dissolved in 0.1% DMSO, which was distributed to 50 μl of each sample diluted at different concentrations by 50 μl to make the total volume 1 ml, followed by culture for 10 minutes at 37° C. The experimental blank group was added with the mixture excluding 0.04 mM DL-glycealdehyde, and STD was treated with the sample including 135 mM Na, K-phosphate buffer (pH 7.0), 100 mM lithium sulfate, and 50 μl of NADP (0.2˜5 μM). The reaction was terminated by adding 0.3 ml of 0.5 N HCl. 1 ml of 6 M NaOH including 10 mM imidazole was added thereto, followed by reaction at 60° C. for 10 minutes. Then, the conversion of NADP to fluorescent product was measured. The examination was performed in triplicate. The effect was measured by using a spectrofluorophotometric detector (Bio-TEK, Synergy HT, USA) (Ex. 360 nm, Em. 460 nm) and presented as IC50. The extract of Homonoia riparia Lour. was prepared at the concentration of 1 μg/ml, 2.5 μg/ml, or 5 μg/ml. The normal-hexane fraction was prepared at the concentration of 2.5 μg/ml, 5 μg/ml, or 10 μg/ml. The ethyl acetate fraction was prepared at the concentration of 0.5 μg/ml, 1 μg/ml, or 2.5 μg/ml. The normal-butanol fraction was prepared at the concentration of 1 μg/ml, 2.5 μg/ml, or 5.0 μg/ml. The water fraction was prepared at the concentration of 2.5 μg/ml, 5 μg/ml, or 10 μg/ml. As the comparative control group, one of the excellent aldose reductase inhibitors, 3,3-tetramethyleneglutaric acid, was prepared at the concentration of 3.72 μg/ml, 4.66 μg/ml, or 5.59 μg/ml. Then, AR inhibiting effect of each sample was measured.

AGE-BSA cross-linked to collagen, sequence (P02769 25-607): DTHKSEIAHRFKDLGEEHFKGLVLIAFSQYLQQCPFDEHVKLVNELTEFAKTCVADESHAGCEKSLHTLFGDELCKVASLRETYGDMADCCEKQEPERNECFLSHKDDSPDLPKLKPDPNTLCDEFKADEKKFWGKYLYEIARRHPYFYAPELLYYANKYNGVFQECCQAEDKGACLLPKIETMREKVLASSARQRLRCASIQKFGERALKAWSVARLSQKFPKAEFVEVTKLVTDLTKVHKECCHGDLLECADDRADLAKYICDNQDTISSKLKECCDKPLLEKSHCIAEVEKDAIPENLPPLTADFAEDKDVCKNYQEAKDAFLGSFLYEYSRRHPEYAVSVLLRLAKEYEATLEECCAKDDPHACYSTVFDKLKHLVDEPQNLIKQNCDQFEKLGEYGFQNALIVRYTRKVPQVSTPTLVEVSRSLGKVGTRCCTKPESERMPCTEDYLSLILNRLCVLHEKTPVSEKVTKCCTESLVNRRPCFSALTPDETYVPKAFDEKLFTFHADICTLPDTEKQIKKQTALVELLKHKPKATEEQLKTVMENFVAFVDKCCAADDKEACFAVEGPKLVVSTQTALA

Structure (SMILES): Cc1sc[n+](CC(=O)c2ccccc2)c1C.[Cl-] [ALT-711, 4,5-dimethyl-3-(2-oxo-2-phenylethyl)-thiazolium chloride]
- IC50 ([1]; read-out: IC50 (μg/ml), AGE-BSA cross-linking breaking): > 3730 µM
- AGE-BSA (%) remaining cross-linked ([1]; conc. 10 μg/ml): 100.18 ± 18.4%
- AGE-BSA (%) remaining cross-linked ([1]; conc. 50 μg/ml): 100.13 ± 4.42%
- AGE-BSA (%) remaining cross-linked ([1]; conc. 100 μg/ml): 100.21 ± 5.46%
- AGE-BSA (%) remaining cross-linked ([1]; conc. 1000 μg/ml): 51.77 ± 9.54%

Structure (SMILES): N=C(N)NN [Aminoguanidine]
- IC50 (μg/ml) 14th day, advanced glycation endproducts production [2]: 52.96 µg/mL (≈ 715 µM)
- Inhibition (%) 14th day ([2]; conc. 18.5 μg/ml): 15.50 ± 1.79%
- Inhibition (%) 14th day ([2]; conc. 37 μg/ml): 33.56 ± 0.51%
- Inhibition (%) 14th day ([2]; conc. 55.5 μg/ml): 52.81 ± 2.81%

Structure (SMILES): O=C(O)CC1(CC(=O)O)CCCC1 [3,3-tetramethyleneglutaric acid]
- inhibition at 3.72 µg/mL ([3]; conc. 3.72 μg/ml): 33 ± 4.36%
- inhibition at 4.66 µg/mL ([3]; conc. 4.66 μg/ml): 40.3 ± 1.36%
- inhibition at 5.59 µg/mL ([3]; conc. 5.59 μg/ml): 51.6 ± 0.78%
- IC50 ([3]; rat lens enzyme, read-out: Inhibiting effect (IC50) (μg/ml), aldose reductase (converted)): 29.1 µM
